Measurements from patent US11889833B2, “Protoporphyrinogen oxidase inhibitors” (Enko Chem, Inc., priority 2022, dated 2024).

Assays:
Format in all cases: in vivo
[1] = tested on: Echinochloa crus-galli (ECHCG); assay: Post-emergence herbicidal activity, ECHCG; settings: % visual injury compared to treatment control, 7 days after treatment
Description: (§1) Selected compounds of the invention were screened at 100 PPM against Amaranthus retroflexus (AMARE), Echinochloa crus-galli (ECHCG), Kochia scoparia (KCHSC), and Setaria italica (SETIT).
(§2) Accordingly, PPO susceptible weed seeds were sown in 5″×5″ pots by quadrant containing Miracle-Gro potting mix (Scotts Miracle-Gro Company, Marysville, OH, USA) and grown in a Conviron growth chamber with appropriate growth conditions (temperature of 26/22° C. with photoperiod 16/8 h light day/night and light intensity of 300 μmol m^−2s^−1 supplemented by LED lamps). Relative humidity in the growth chamber was maintained at around 65%. Plants were grown until 2-4 leaf stage and thinned to 5-8 plants per quadrant per species.
(§3) Compounds were formulated in 25% Acetone, 1% Crop oil concentrate (COC-Agridex), 0.1% Tween-20, and 2.5% Ammonium sulphate (AMS). Three replicate pots were treated with each compound. Treatment consisting of the above formulation excluding active compound was applied as a treatment control (TC). Plants were treated with the test compound solution in a laboratory spray chamber fitted with 8003 flat fan nozzles calibrated to deliver 187-200 L ha^−1 at 269 kPa. Plants were placed back in the growth chamber and evaluated for % visual injury compared to TC 7 days after treatment (DAT). The data presented in Table 3 indicate a percentage control, where 100% control indicates complete inhibition of growth.

Kochia scoparia (KCHSC) = assay: Post-emergence herbicidal activity, KCHSC; settings: % visual injury compared to treatment control, 7 days after treatment
Description: as §1, §2, §3

[2] = tested on: Amaranthus retroflexus (AMARE); assay: Post-emergence herbicidal activity, AMARE; settings: % visual injury compared to treatment control, 7 days after treatment
Description: as §1, §2, §3

Setaria italica (SETIT) = assay: Post-emergence herbicidal activity, SETIT; settings: % visual injury compared to treatment control, 7 days after treatment
Description: as §1, §2, §3

[3] = tested on: Amaranthus retroflexus (AMARE); assay: Pre-emergence herbicidal activity, AMARE; settings: % growth and germination inhibition compared to treatment control, 7 days after treatment
Description: Selected compounds of the invention were screened at 200 PPM against Amaranthus retroflexus (AMARE).
Accordingly, PPO susceptible weed seeds were planted in 5″×5″ pots by quadrant containing custom field soil mix (Sandy loam with 4.7% OM, pH 7.0) and covered with a fine layer of the same soil. Compounds were formulated in 25% Acetone, 1% Crop oil concentrate (COC-Agridex), 0.1% Tween-20, and 2.5% Ammonium sulphate (AMS). Three replicate pots were treated with each compound. Treatment consisting of the above formulation excluding active compound was applied as a treatment control (TC). Pots were treated with the test compound solution in a laboratory spray chamber fitted with 8003 flat fan nozzles calibrated to deliver 187-200 L ha-1 at 269 kPa. Compound was incorporated into the soil by simulating rainfall equivalent to 0.2 mm using the same track sprayer. Subsequently, pots were irrigated from the bottom until assessed for % growth and germination inhibition. Pots were placed back in the growth chamber and evaluated for % growth and germination inhibition compared to TC 7 days after treatment (DAT). Growth conditions are similar to the ones mentioned in POST emergence assay.
The data presented in Table 4 indicate a percentage control, where 100% control indicates complete inhibition of growth and germination.

COC(=O)CCNC(=O)[C@@H](C)Sc1cc(-c2c(F)c(F)c(F)c(F)c2F)c(F)cc1Cl (single isomer, unassigned) [Compound 6]
Post-emergence (100 ppm) ECHCG, percentage control [1]: 10%
Post-emergence (100 ppm) KCHSC, percentage control (Kochia scoparia (KCHSC)): 12%
Post-emergence (100 ppm) AMARE, percentage control [2]: 100%
Post-emergence (100 ppm) SETIT, percentage control (Setaria italica (SETIT)): 8%

C[C@H](Sc1cc(-c2c(F)c(F)c(F)c(F)c2F)c(F)cc1Cl)C(=O)NCCC(=O)O [Compound 7, (S)-3-(2-((4-chloro-2′,3′,4′,5′,6,6′-hexafluoro-[1,1′-biphenyl]-3-yl)thio)propanamido)propanoic acid]
Post-emergence (100 ppm) ECHCG, percentage control [1]: 37%
Post-emergence (100 ppm) KCHSC, percentage control (Kochia scoparia (KCHSC)): 20%
Post-emergence (100 ppm) AMARE, percentage control [2]: 100%
Post-emergence (100 ppm) SETIT, percentage control (Setaria italica (SETIT)): 28%

C[C@@H](Sc1cc(-c2c(F)c(F)c(F)c(F)c2F)c(F)cc1Cl)C(=O)NCCC(=O)O [Compound 8, (R)-3-(2-((4-chloro-2′,3′,4′,5′,6,6′-hexafluoro-[1,1′-biphenyl]-3-yl)thio)propanamido)propanoic acid]
Post-emergence (100 ppm) ECHCG, percentage control [1]: 28%
Post-emergence (100 ppm) KCHSC, percentage control (Kochia scoparia (KCHSC)): 23%
Post-emergence (100 ppm) AMARE, percentage control [2]: 100%
Post-emergence (100 ppm) SETIT, percentage control (Setaria italica (SETIT)): 23%

CN(C)C(=O)NS(=O)(=O)c1cc(-c2c(F)c(F)c(F)c(F)c2F)c(F)cc1Cl [Compound 16, 4-chloro-N-(dimethylcarbamoyl)-2′,3′,4′,5′,6,6′-hexafluoro-[1,1′-biphenyl]-3-sulfonamide]
Post-emergence (100 ppm) ECHCG, percentage control [1]: 95%
Post-emergence (100 ppm) KCHSC, percentage control (Kochia scoparia (KCHSC)): 8%
Post-emergence (100 ppm) AMARE, percentage control [2]: 33%
Post-emergence (100 ppm) SETIT, percentage control (Setaria italica (SETIT)): 43%
AMARE pre-emergence (200 ppm), percentage control [3]: 100%

CC(=O)NS(=O)(=O)c1cc(-c2c(F)c(F)c(F)c(F)c2F)c(F)cc1Cl [Compound 17, N-((4-chloro-2′,3′,4′,5′,6,6′-hexafluoro-[1,1′-biphenyl]-3-yl)sulfonyl)acetamide]
Post-emergence (100 ppm) ECHCG, percentage control [1]: 100%
Post-emergence (100 ppm) KCHSC, percentage control (Kochia scoparia (KCHSC)): 13%
Post-emergence (100 ppm) AMARE, percentage control [2]: 88%
Post-emergence (100 ppm) SETIT, percentage control (Setaria italica (SETIT)): 100%
AMARE pre-emergence (200 ppm), percentage control [3]: 100%

CCC(=O)NS(=O)(=O)c1cc(-c2c(F)c(F)c(F)c(F)c2F)c(F)cc1Cl [Compound 18, N-((4-chloro-2′,3′,4′,5′,6,6′-hexafluoro-[1,1′-biphenyl]-3-yl)sulfonyl)propionamide]
Post-emergence (100 ppm) ECHCG, percentage control [1]: 100%
Post-emergence (100 ppm) KCHSC, percentage control (Kochia scoparia (KCHSC)): 23%
Post-emergence (100 ppm) AMARE, percentage control [2]: 100%
Post-emergence (100 ppm) SETIT, percentage control (Setaria italica (SETIT)): 100%
AMARE pre-emergence (200 ppm), percentage control [3]: 100%

CCC(=O)NS(=O)(=O)c1cc(-c2c(F)cc(F)c(F)c2F)c(F)cc1Cl [Compound 26, N-((4-chloro-2′,3′,4′,6,6′-pentafluoro-[1,1′-biphenyl]-3-yl)sulfonyl)propionamide]
Post-emergence (100 ppm) ECHCG, percentage control [1]: 100%
Post-emergence (100 ppm) KCHSC, percentage control (Kochia scoparia (KCHSC)): 15%
Post-emergence (100 ppm) AMARE, percentage control [2]: 100%
Post-emergence (100 ppm) SETIT, percentage control (Setaria italica (SETIT)): 100%
AMARE pre-emergence (200 ppm), percentage control [3]: 100%
